Reference: PubChem BioAssay AID332 (DTP/NCI, 2004)
Where “and” joins values, the source holds several entries; their conditions need not be identical. Identical values can stand only once. Results filed as inconclusive are left out.

System: mice, ADJ-PC-20 plasma cell tumor sc, T/C %
Assay: NCI In Vivo Anticancer Drug Screen. Data for tumor model ADJ-PC-20 Plasma Cell (subcutaneous) in unknown mice
Conditions: endpoint: mean tumor weight, higher = larger tumour
Description: The antitumor activity of compounds was measured in mice bearing transplantable tumors. Survival or tumor size were measured and the results are expressed as the measurement made in the treated group (T) divided by the measurement made in the vehicle treated control group (C). The tumor model used in this assay is ADJ-PC-20 Plasma Cell (subcutaneous) in unknown mice

[1] = dose: 0.5 mg/kg/injection, schedule: Q01DX010 (ip), vehicle: carboxymethylcellulose (CMC)
[2] = dose: 1.0 mg/kg/injection, schedule: Q01DX010 (ip), vehicle: carboxymethylcellulose (CMC)
[3] = dose: 2.0 mg/kg/injection, schedule: Q01DX010 (ip), vehicle: carboxymethylcellulose (CMC)
[4] = dose: 4.0 mg/kg/injection, schedule: Q01DX010 (ip), vehicle: carboxymethylcellulose (CMC)
[5] = dose: 8.0 mg/kg/injection, schedule: Q01DX010 (ip), vehicle: carboxymethylcellulose (CMC)
[6] = dose: 12.5 mg/kg/injection, schedule: Q01DX010 (ip), vehicle: carboxymethylcellulose (CMC)
[7] = dose: 25.0 mg/kg/injection, schedule: Q01DX010 (ip), vehicle: carboxymethylcellulose (CMC)
[8] = dose: 50.0 mg/kg/injection, schedule: Q01DX010 (ip), vehicle: carboxymethylcellulose (CMC)
[9] = dose: 3.75 mg/kg/injection, schedule: Q01DX010 (ip), vehicle: carboxymethylcellulose (CMC)
[10] = dose: 7.5 mg/kg/injection, schedule: Q01DX010 (ip), vehicle: carboxymethylcellulose (CMC)
[11] = dose: 15.0 mg/kg/injection, schedule: Q01DX010 (ip), vehicle: carboxymethylcellulose (CMC)
[12] = dose: 30.0 mg/kg/injection, schedule: Q01DX010 (ip), vehicle: carboxymethylcellulose (CMC)

COC(=O)c1nc(-c2ccc3c(n2)C(=O)C(N)=C(OC)C3=O)c(N)c(-c2ccc(OC)c(OC)c2O)c1C
T/C (dose: 0.35 mg/kg/injection, schedule: Q01DX010 (ip), vehicle: other): 71 % of control
T/C (dose: 0.65 mg/kg/injection, schedule: Q01DX010 (ip), vehicle: other): 60 % of control
T/C (dose: 1.08 mg/kg/injection, schedule: Q01DX010 (ip), vehicle: other): 32 % of control
T/C (dose: 1.8 mg/kg/injection, schedule: Q01DX010 (ip), vehicle: other): 4 % of control

O=C(Nc1ccc(C2=NCCCN2)cc1)c1ccc(NC(=O)c2ccc(C3=NCCCN3)cc2)cc1
T/C (dose: 0.12 mg/kg/injection, schedule: Q01DX010 (ip), vehicle: carboxymethylcellulose (CMC)): 99 % of control
T/C (dose: 0.25 mg/kg/injection, schedule: Q01DX010 (ip), vehicle: carboxymethylcellulose (CMC)): 87 % of control
T/C [1]: 109 % of control
T/C [2]: 84 % of control
T/C [3]: 94 % of control
T/C [4]: 83 % of control
T/C [5]: 56 % of control

NC(=O)N(CCCl)N=O
T/C (dose: 1.75 mg/kg/injection, schedule: Q01DX010 (ip), vehicle: carboxymethylcellulose (CMC)): 93 % of control
T/C (dose: 3.5 mg/kg/injection, schedule: Q01DX010 (ip), vehicle: carboxymethylcellulose (CMC)): 105 % of control
T/C (dose: 7.0 mg/kg/injection, schedule: Q01DX010 (ip), vehicle: carboxymethylcellulose (CMC)): 102 % of control

CC(=O)Nc1ccc2nc3ccc(NC(C)=O)cc3[n+](-c3ccccc3)c2c1
T/C [6]: 65 % of control
T/C [7]: 76 % of control
T/C [8]: 77 % of control

CC(=O)OCC1OC(n2ncc(=O)[nH]c2=O)C(OC(C)=O)C1OC(C)=O (stereo unspecified)
T/C (dose: 125.0 mg/kg/injection, schedule: Q01DX010 (ip), vehicle: other): 55 % of control
T/C (dose: 250.0 mg/kg/injection, schedule: Q01DX010 (ip), vehicle: other): 58 % of control
T/C (dose: 500.0 mg/kg/injection, schedule: Q01DX010 (ip), vehicle: other): 48 % of control

C[C@H]1C(=O)O[C@@H]2CCN3CC=C(COC(=O)[C@](C)(O)[C@@]1(C)O)[C@H]23
T/C [9]: 86 % of control
T/C [10]: 56 % of control
T/C [11]: 30 % of control
T/C [12]: 36 % of control and 44 % of control
T/C (dose: 60.0 mg/kg/injection, schedule: Q01DX010 (ip), vehicle: carboxymethylcellulose (CMC)): 6 % of control and 17 % of control

N=C(N)SCc1c2ccccc2c(CSC(=N)N)c2ccccc12
T/C (dose: 10.0 mg/kg/injection, schedule: Q01DX010 (ip), vehicle: carboxymethylcellulose (CMC)): 119 % of control
T/C (dose: 20.0 mg/kg/injection, schedule: Q01DX010 (ip), vehicle: carboxymethylcellulose (CMC)): 55 % of control

CCCSc1ncnc2nc[nH]c12
T/C [4]: 81 % of control
T/C [5]: 43 % of control
T/C (dose: 16.0 mg/kg/injection, schedule: Q01DX010 (ip), vehicle: carboxymethylcellulose (CMC)): 28 % of control

NC(=O)c1ccc(N)nc1
T/C (dose: 0.63 mg/kg/injection, schedule: Q01DX010 (ip), vehicle: saline): 69 % of control
T/C (dose: 1.25 mg/kg/injection, schedule: Q01DX010 (ip), vehicle: saline): 52 % of control
T/C (dose: 1.25 mg/kg/injection, schedule: Q01DX010 (ip), vehicle: water): 35 % of control
T/C (dose: 2.5 mg/kg/injection, schedule: Q01DX010 (ip), vehicle: water): 18 % of control

CSc1ncnc2c1ncn2C1OC(CO)C(O)C1O (stereo unspecified)
T/C (dose: 3.1 mg/kg/injection, schedule: Q01DX010 (ip), vehicle: carboxymethylcellulose (CMC)): 84 % of control
T/C (dose: 6.25 mg/kg/injection, schedule: Q01DX010 (ip), vehicle: carboxymethylcellulose (CMC)): 98 % of control
T/C [6]: 104 % of control
T/C [7]: 14 % of control

O=C1C(NC(=O)C2CCCCC2)=C(N2CC2)C(=O)C(NC(=O)C2CCCCC2)=C1N1CC1
T/C (dose: 37.5 mg/kg/injection, schedule: Q01DX010 (ip), vehicle: carboxymethylcellulose (CMC)): 102 % of control and 115 % of control

Cn1cnc([N+](=O)[O-])c1Sc1nc(N)nc2nc[nH]c12
T/C [1]: 71 % of control
T/C [2]: 33 % of control
T/C [3]: 30 % of control and 31 % of control
T/C [4]: 2 % of control

O=CN(O)CC(=O)O
T/C (dose: 62.5 mg/kg/injection, schedule: Q01DX011 (ip), vehicle: carboxymethylcellulose (CMC)): 124 % of control
T/C (dose: 125.0 mg/kg/injection, schedule: Q01DX011 (ip), vehicle: carboxymethylcellulose (CMC)): 76 % of control
T/C (dose: 250.0 mg/kg/injection, schedule: Q01DX011 (ip), vehicle: carboxymethylcellulose (CMC)): 74 % of control
T/C (dose: 500.0 mg/kg/injection, schedule: Q01DX010 (ip), vehicle: carboxymethylcellulose (CMC)): 89 % of control
T/C (dose: 500.0 mg/kg/injection, schedule: Q01DX011 (ip), vehicle: carboxymethylcellulose (CMC)): 56 % of control
T/C (dose: 1000.0 mg/kg/injection, schedule: Q01DX010 (ip), vehicle: carboxymethylcellulose (CMC)): 63 % of control

CC[C@@H](c1ccc(O)cc1)[C@@H](CC)c1ccc(O)cc1
T/C (dose: 62.0 mg/kg/injection, schedule: Q01DX010 (sc), vehicle: steriod suspending solution): 80 % of control
T/C (dose: 125.0 mg/kg/injection, schedule: Q01DX010 (sc), vehicle: steriod suspending solution): 87 % of control
T/C (dose: 250.0 mg/kg/injection, schedule: Q01DX010 (sc), vehicle: steriod suspending solution): 83 % of control
T/C (dose: 500.0 mg/kg/injection, schedule: Q01DX010 (sc), vehicle: steriod suspending solution): 91 % of control and 105 % of control
T/C (dose: 1000.0 mg/kg/injection, schedule: Q01DX010 (sc), vehicle: steriod suspending solution): 111 % of control

S=c1nc[nH]c2nc[nH]c12
T/C (dose: 3.1 mg/kg/injection, schedule: Q01DX010 (ip), vehicle: other): 28 % of control
T/C (dose: 6.2 mg/kg/injection, schedule: Q01DX010 (ip), vehicle: other): 16 % of control
T/C (dose: 6.25 mg/kg/injection, schedule: Q01DX010 (ip), vehicle: other): 19 % of control
T/C (dose: 6.25 mg/kg/injection, schedule: Q01DX011 (ip), vehicle: other): 7 % of control
T/C (dose: 12.5 mg/kg/injection, schedule: Q01DX010 (ip), vehicle: other): 18 % of control
T/C (dose: 12.5 mg/kg/injection, schedule: Q01DX011 (ip), vehicle: other): 4 % of control
T/C (dose: 25.0 mg/kg/injection, schedule: Q01DX010 (ip), vehicle: other): 9 % of control and 10 % of control
T/C (dose: 25.0 mg/kg/injection, schedule: Q01DX011 (ip), vehicle: other): 5 % of control
T/C (dose: 50.0 mg/kg/injection, schedule: Q01DX011 (ip), vehicle: other): 7 % of control

O=C(Nc1ccc(C2=NCCN2)cc1)c1ccc(C(=O)Nc2ccc(C3=NCCN3)cc2)cc1
T/C [7]: 73 % of control
T/C [8]: 78 % of control
T/C (dose: 100.0 mg/kg/injection, schedule: Q01DX010 (ip), vehicle: carboxymethylcellulose (CMC)): 60 % of control
T/C (dose: 200.0 mg/kg/injection, schedule: Q01DX010 (ip), vehicle: carboxymethylcellulose (CMC)): 71 % of control

CC(=O)O[C@]1(C(C)=O)CC[C@H]2[C@@H]3C[C@H](C)C4=CC(=O)C=C[C@]4(C)[C@@]3(F)[C@@H](O)C[C@@]21C
T/C (dose: 5.0 mg/kg/injection, schedule: Q01DX010 (sc), vehicle: steriod suspending solution): 82 % of control
T/C (dose: 10.0 mg/kg/injection, schedule: Q01DX010 (sc), vehicle: steriod suspending solution): 55 % of control
T/C (dose: 20.0 mg/kg/injection, schedule: Q01DX010 (sc), vehicle: steriod suspending solution): 74 % of control
T/C (dose: 40.0 mg/kg/injection, schedule: Q01DX010 (sc), vehicle: steriod suspending solution): 73 % of control
T/C (dose: 80.0 mg/kg/injection, schedule: Q01DX010 (sc), vehicle: steriod suspending solution): 33 % of control

[I][Hg][CH2]C1COC([CH2][Hg][I])CO1 (stereo unspecified)
T/C [9]: 87 % of control
T/C [10]: 111 % of control
T/C [11]: 104 % of control
T/C [12]: 115 % of control

Clc1ccc(C(c2ccccc2Cl)C(Cl)Cl)cc1 (stereo unspecified)
T/C (dose: 25.0 mg/kg/injection, schedule: Q01DX010 (sc), vehicle: steriod suspending solution): 66 % of control
T/C (dose: 50.0 mg/kg/injection, schedule: Q01DX010 (sc), vehicle: steriod suspending solution): 60 % of control
T/C (dose: 200.0 mg/kg/injection, schedule: Q01DX010 (sc), vehicle: steriod suspending solution): 86 % of control and 100 % of control and 109 % of control
T/C (dose: 400.0 mg/kg/injection, schedule: Q01DX010 (sc), vehicle: steriod suspending solution): 92 % of control
T/C (dose: 800.0 mg/kg/injection, schedule: Q01DX010 (sc), vehicle: steriod suspending solution): 73 % of control
